The results in this text go back to ChEMBL document CHEMBL3638749, “Bicyclic thiazole compounds” (2015).

The target of the test is TRAF2 and NCK-interacting protein kinase (Homo sapiens, UniProt Q9UKE5). The test is described as follows: Kinase Assay: The kinase assays were conducted in a 20 μl volume using 384-well plates (Greiner). The reaction mixture consists of compound or vehicle (1% DMSO), 0.08 ng/μl TNIK_N, 1 μM FITC-labeled substrate peptides, including ε-aminocaproic acid and 7 amino acids (described as SEQ ID NO. 3 in "Kinase assay of TEST EXAMPLE 1" of WO 2010/064111(P.31)), 20 mM Hepes, pH 7.5, 0.01% Triton X-100, 5 mM MgCl2, 25 μM ATP and 2 mM DTT. As blank, TNIK_N was excluded from the reaction mixture of vehicle (1% DMSO). The kinase reaction was carried out 1 h at room temperature and terminated by addition of 60 μl of the termination buffer (127 mM Hepes, pH 7.5, 26.7 mM EDTA, 0.01% Triton X-100, 1% DMSO and 0.13% Coating Reagent 3 (Caliper Life Sciences)). The amount of unphosphorylated and phosphorylated FITC-labeled substrate peptides was detected by Mobility Shift Micro Fluidic Technology (Caliper LC3000 System, Caliper Life Sciences).
Sequence of TRAF2 and NCK-interacting protein kinase (Q9UKE5 whole entry): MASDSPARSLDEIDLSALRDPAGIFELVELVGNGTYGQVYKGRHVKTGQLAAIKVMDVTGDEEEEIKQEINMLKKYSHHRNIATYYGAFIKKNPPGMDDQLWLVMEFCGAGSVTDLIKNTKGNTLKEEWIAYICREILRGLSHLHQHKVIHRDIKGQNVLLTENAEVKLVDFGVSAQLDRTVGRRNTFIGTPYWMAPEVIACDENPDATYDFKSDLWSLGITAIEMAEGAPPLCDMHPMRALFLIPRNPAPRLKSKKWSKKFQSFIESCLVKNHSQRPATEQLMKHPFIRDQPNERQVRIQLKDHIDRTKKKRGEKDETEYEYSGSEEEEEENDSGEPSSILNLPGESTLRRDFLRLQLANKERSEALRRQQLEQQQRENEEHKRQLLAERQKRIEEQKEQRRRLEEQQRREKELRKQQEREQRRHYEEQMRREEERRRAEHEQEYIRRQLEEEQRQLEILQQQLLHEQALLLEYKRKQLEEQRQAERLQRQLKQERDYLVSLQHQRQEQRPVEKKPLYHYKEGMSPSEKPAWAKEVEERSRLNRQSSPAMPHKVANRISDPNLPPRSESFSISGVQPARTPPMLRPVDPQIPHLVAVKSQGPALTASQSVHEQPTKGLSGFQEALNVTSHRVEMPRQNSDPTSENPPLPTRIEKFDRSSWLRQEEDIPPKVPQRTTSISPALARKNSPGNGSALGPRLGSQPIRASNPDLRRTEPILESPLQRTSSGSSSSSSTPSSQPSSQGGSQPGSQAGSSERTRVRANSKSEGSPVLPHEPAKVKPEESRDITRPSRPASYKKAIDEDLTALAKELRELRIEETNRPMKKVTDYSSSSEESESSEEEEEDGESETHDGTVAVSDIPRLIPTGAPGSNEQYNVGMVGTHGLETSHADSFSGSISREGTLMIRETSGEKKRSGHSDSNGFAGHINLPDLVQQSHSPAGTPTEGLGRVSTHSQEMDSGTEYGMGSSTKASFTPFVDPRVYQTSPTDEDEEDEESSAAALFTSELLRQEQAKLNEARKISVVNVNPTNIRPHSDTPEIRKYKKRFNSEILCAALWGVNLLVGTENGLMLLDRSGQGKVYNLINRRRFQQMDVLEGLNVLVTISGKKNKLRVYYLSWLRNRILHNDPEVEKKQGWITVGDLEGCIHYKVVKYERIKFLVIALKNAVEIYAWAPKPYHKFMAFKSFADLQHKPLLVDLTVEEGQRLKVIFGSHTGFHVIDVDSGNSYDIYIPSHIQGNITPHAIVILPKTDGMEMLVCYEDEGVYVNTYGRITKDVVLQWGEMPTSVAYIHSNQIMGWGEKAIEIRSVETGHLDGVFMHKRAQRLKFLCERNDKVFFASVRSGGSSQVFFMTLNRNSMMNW

What is called IC50 is the point on the concentration scale where inhibition reaches its midpoint. `NC(=O)c1nc(Nc2ccc3cc(F)ccc3c2)sc1NC(=O)c1ccc(NCCO)cc1`: the IC50 is 22.5 nM.
The result for `CC#CC(=O)Nc1sc(Nc2ccc3ccccc3c2)nc1C(N)=O` reads 4.4 nM; that for `NC(=O)c1nc(Nc2ccc3ccccc3c2)sc1NC(=O)c1ccc(Cn2ccnc2[N+](=O)[O-])cc1`, 9.5 nM.
